Measured values from patent publication US20190352276A1, “INHIBITORS OF BRUTON'S TYROSINE KINASE” (Joint Stock Company "Biocad", priority 2016, published 2019).

Experiment: Chemical stability in artificial gastric fluid (SGF without enzymes); also: time not given here
Settings: 10 μM in SGF without enzymes, pH=1.4, 37° C.

Question: Which “Amount of substance in the sample in % (chemical stability)” value (shortened to “Amount of substance in the sample in %”) does the source give for `C=CC(=O)N1CCC[C@@H](n2nc(-c3ccc(C(=O)Nc4ccccn4)cc3)c3cncc(Cl)c32)C1` [BCD-BTK -201] here?
Answer: The value was 100%.

Question: With `C=CC(=O)N1CCC[C@@H](n2nc(-c3ccc(Oc4ccncc4C#N)cc3)c3cncc(Cl)c32)C1` [BCD-BTK -202, (R)-4-(4-(1-(1-acryloylpiperidin-3-yl)-7-chloro-1H-pyrazolo[4,3-c]pyridin-3-yl)phenoxy)nicotinonitrile] as the molecule, how does the “Amount of substance in the sample in %” value read?
Answer: Its value is 95.5%.

Question: For `C=CC(=O)N1CCC[C@@H](n2nc(-c3ccc(Oc4ccncc4C(N)=O)cc3)c3cncc(Cl)c32)C1` [BCD-BTK -203, (R)-4-(4-(1-(1-acryloylpiperidin-3-yl)-7-chloro-1H-pyrazolo[4,3-c]pyridin-3-yl)phenoxy)nicotinamide], which “Amount of substance in the sample in %” value is on record?
Answer: The value was 100%.

Question: Which “Amount of substance in the sample in %” value does the source give for `C=CC(=O)N1CCC[C@@H](n2nc(-c3ccc(-n4ccc(=O)cc4)cc3F)c3cncc(Cl)c32)C1` [BCD-BTK -204, (R)-1-(4-(1-(1-acryloylpiperidin-3-yl)-7-chloro-1H-pyrazolo[4,3-c]pyridin-3-yl)-3-fluorophenyl)pyridin-4(1H)-one] here?
Answer: Its value is 100%.

Question: For `C=CC(=O)N1CCC[C@@H](n2nc(-c3ccc(-n4ccc(=O)cc4)c(F)c3)c3cncc(Cl)c32)C1` [BCD-BTK -205, (R)-1-(4-(1-(1-acryloylpiperidin-3-yl)-7-chloro-1H-pyrazolo[4,3-c]pyridin-3-yl)-2-fluorophenyl)pyridin-4(1H)-one], which “Amount of substance in the sample in %” value is on record?
Answer: Its value is 100%.

Question: Which “Amount of substance in the sample in %” value does the source give for `C=CC(=O)N1CCC[C@@H](n2nc(-c3cnc(-n4ccc(=O)c(C#N)c4)nc3)c3cncc(Cl)c32)C1` [BCD-BTK -206, (R)-1-(5-(1-(1-acryloylpiperidin-3-yl)-7-chloro-1H-pyrazolo[4,3-c]pyridin-3-yl)pyrimidin-2-yl)-4-oxo-1,4-dihydropyridine-3-carbonitrile] here?
Answer: The value was 100%.

Question: With `C=CC(=O)N1CCC[C@@H](n2nc(-c3cnc(-n4ccc(=O)c(C(N)=O)c4)nc3)c3cncc(Cl)c32)C1` [BCD-BTK -207, (R)-1-(5-(1-(1-acryloylpiperidin-3-yl)-7-chloro-1H-pyrazolo[4,3-c]pyridin-3-yl)pyrimidin-2-yl)-4-oxo-1,4-dihydropyridine-3-carboxamide] as the molecule, how does the “Amount of substance in the sample in %” value read?
Answer: Its value is 100%.

Question: For `C=CC(=O)N1CCC[C@@H](n2nc(-c3ccc(-n4ccc(=O)c(C#N)c4)cc3)c3cncc(Cl)c32)C1` [BCD-BTK -208, (R)-1-(4-(1-(1-acryloylpiperidin-3-yl)-7-chloro-1H-pyrazolo[4,3-c]pyridin-3-yl)phenyl)-4-oxo-1,4-dihydropyridine-3-carbonitrile], which “Amount of substance in the sample in %” value is on record?
Answer: The value was 100%.

Question: With `C=CC(=O)N1CCC[C@@H](n2nc(-c3ccc(C(=O)Nc4cc(C(F)(F)F)ccn4)cc3)c3cncc(Cl)c32)C1` [BCD-BTK -210, (R)-4-(1-(1-acryloylpiperidin-3-yl)-7-chloro-1H-pyrazolo[4,3-c]pyridin-3-yl)-N-(4-(trifluoromethyl)pyridin-2-yl)benzamide] as the molecule, how does the “Amount of substance in the sample in %” value read?
Answer: The value was 96.1%.

Question: Which “Amount of substance in the sample in %” value does the source give for `C=CC(=O)N1CCC[C@@H](n2nc(-c3ccc(Oc4ccncc4)cc3)c3cncc(F)c32)C1` [BCD-BTK -211, (R)-1-(3-(7-fluoro-3-(4-(pyridin-4-yloxy)phenyl)-1H-pyrazolo[4,3-c]pyridin-1-yl)piperidin-1-yl)prop-2-en-1-one] here?
Answer: The value was 100%.

Question: Which “Amount of substance in the sample in %” value does the source give for `C=CC(=O)N1CCC[C@@H](n2nc(-c3ccc(C(=O)Nc4ccc(F)cn4)cc3)c3cncc(Cl)c32)C1` [BCD-BTK -212, (R)-4-(1-(1-acryloylpiperidin-3-yl)-7-chloro-1H-pyrazolo[4,3-c]pyridin-3-yl)-N-(5-fluoropyridin-2-yl)benzamide] here?
Answer: Its value is 100%.

Question: With `C=CC(=O)N1CCC[C@@H](n2nc(-c3ccc(Oc4ccncc4C#N)cc3)c3cncc(C#N)c32)C1` [BCD-BTK -213, (R)-1-(1-acryloylpiperidin-3-yl)-3-(4-(3-cyanopyridin-4-yloxy)phenyl)-1H-pyrazolo[4,3-c]pyridine-7-carbonitrile] as the molecule, how does the “Amount of substance in the sample in %” value read?
Answer: Its value is 97.4%.

Question: With `C=CC(=O)N1CCC[C@@H](n2nc(-c3ccc(C(=O)Nc4cc(C(F)(F)CC)ccn4)cc3)c3cncc(F)c32)C1` [BCD-BTK -214, (R)-4-(1-(1-acryloylpiperidin-3-yl)-7-fluoro-1H-pyrazolo[4,3-c]pyridin-3-yl)-N-(4-(1,1-difluoropropyl)pyridin-2-yl)benzamide] as the molecule, how does the “Amount of substance in the sample in %” value read?
Answer: Its value is 100%.

Question: Which “Amount of substance in the sample in %” value does the source give for `C=CC(=O)N1CCC[C@@H](n2nc(-c3ccc(C(=O)Nc4cc(C(F)(F)CC)ccn4)cc3)c3cncc(Cl)c32)C1` [BCD-BTK -215, (R)-4-(1-(1-acryloylpiperidin-3-yl)-7-chloro-1H-pyrazolo[4,3-c]pyridin-3-yl)-N-(4-(1,1-difluoropropyl)pyridin-2-yl)benzamide] here?
Answer: The value was 100%.

Question: For `C=CC(=O)N1CCC[C@@H](n2nc(-c3ccc(Oc4cccnc4C#N)cc3)c3cncc(C#N)c32)C1` [BCD-BTK -216, (R)-1-(1-acryloylpiperidin-3-yl)-3-(4-(2-cyanopyridin-3-yloxy)phenyl)-1H-pyrazolo[4,3-c]pyridine-7-carbonitrile], which “Amount of substance in the sample in %” value is on record?
Answer: Its value is 96.3%.

Question: Which “Amount of substance in the sample in %” value does the source give for `C=CC(=O)N1CCC[C@@H](n2nc(-c3ccc(Oc4ccncc4C#N)cc3)c3cncc(F)c32)C1` [BCD-BTK -217, (R)-4-(4-(1-(1-acryloylpiperidin-3-yl)-7-fluoro-1H-pyrazolo[4,3-c]pyridin-3-yl)phenoxy)nicotinonitrile] here?
Answer: The value was 95.3%.

Question: For `C=CC(=O)N1CCC[C@@H](n2nc(-c3ccc(Oc4cccnc4C#N)cc3)c3cncc(Cl)c32)C1` [BCD-BTK -218, 3-(4-{7-chloro-1-[1-(prop-2-enoyl)piperidin-3-yl]-1H-pyrazolo[4,3-c]pyridin-3-yl}phenoxy)pyridine-2-carbonitrile], which “Amount of substance in the sample in %” value is on record?
Answer: The value was 96%.

Question: For `C=CC(=O)N1CCC[C@@H](n2nc(-c3ccc(Oc4ccncc4)cc3)c3cncc(C#N)c32)C1` [BCD-BTK - 123, (R)-1-(1-acryloylpiperidin-3-yl)-3-(4(pyridin-4-yloxy)phenyl)-1H-pyrazolo[4,3-c]pyridin-7-carbonitrile], which “Amount of substance in the sample in %” value is on record?
Answer: Its value is 97%.

Question: With `C=CC(=O)N1CCC[C@@H](n2nc(-c3ccc(Oc4ccncc4)cc3)c3cncc(Cl)c32)C1` [BCD-BTK - 125, (R)-1-(1-acryloylpiperidin-3-yl)-7-chloro-3-(4-(pyridin-4-yloxy)phenyl)-1H-pyrazolo[4,3-c]pyridine] as the molecule, how does the “Amount of substance in the sample in %” value read?
Answer: The value was 100%.

Question: For `C=CC(=O)N1CCC[C@@H](n2nc(-c3ccc(Oc4ccncc4)cc3)c3c(N)ncc(C#N)c32)C1` [BCD-BTK - 134, (R)-1-(1-acryloylpiperidin-3-yl)-4-amino-3-(4-(pyridin-4-yloxy)phenyl)-1H-pyrazolo[4,3-c]pyridin-7-carbonitrile], which “Amount of substance in the sample in %” value is on record?
Answer: Its value is 100%.

Question: Which “Amount of substance in the sample in %” value does the source give for `C=CC(=O)N1CCC[C@@H](n2nc(-c3ccc(Oc4ccncc4)cc3)c3c(N)ncc(Cl)c32)C1` [BCD-BTK - 139, (R)-1-(1-acryloylpiperidin-3-yl)-7-chloro-3-(4-(pyridin-4-yloxy)phenyl)-1H-pyrazolo[4,3-c]pyridin-4-amine] here?
Answer: The value was 100%.

Question: Which “Amount of substance in the sample in %” value does the source give for `C=CC(=O)N1CCC[C@@H](n2nc(-c3ccc(C(=O)Nc4cccc(F)n4)cc3)c3cncc(F)c32)C1` [BCD-BTK - 248, (R)-4-(1-(1-acryloylpiperidin-3-yl)-7-fluoro-1H-pyrazolo[4,3-c]pyridin-3-yl)-N-(6-fluoropyridin-2-yl)benzamide] here?
Answer: The value was 100%.

Question: Which “Amount of substance in the sample in %” value does the source give for `C=CC(=O)N1CCC[C@@H](n2nc(-c3ccc(C(=O)Nc4ncccc4F)cc3)c3cncc(F)c32)C1` [BCD-BTK - 249, (R)-4-(1-(1-acryloylpiperidin-3-yl)-7-fluoro-1H-pyrazolo[4,3-c]pyridin-3-yl)-N-(3-fluoropyridin-2-yl)benzamide] here?
Answer: Its value is 100%.

Question: With `C=CC(=O)N1CCC[C@@H](n2nc(-c3ccc(C(=O)Nc4cccc(F)n4)cc3)c3c(N)ncc(Cl)c32)C1` [BCD-BTK - 250, (R)-4-(1-(1-acryloylpiperidin-3-yl)-4-amino-7-chloro-1H-pyrazolo[4,3-c]pyridin-3-yl)-N-(6-fluoropyridin-2-yl)benzamide] as the molecule, how does the “Amount of substance in the sample in %” value read?
Answer: The value was 100%.

Question: Which “Amount of substance in the sample in %” value does the source give for `C=CC(=O)N1CCC[C@@H](n2nc(-c3ccc(C(=O)Nc4cc(C(F)(F)F)ccn4)cc3)c3c(N)ncc(Cl)c32)C1` [BCD-BTK - 251, (R)-4-(1-(1-acryloylpiperidin-3-yl)-4-amino-7-chloro-1H-pyrazolo[4,3-c]pyridin-3-yl)-N-(4-(trifluoromethyl)pyridin-2-yl)benzamide] here?
Answer: Its value is 100%.

Question: With `C=CC(=O)N1CCC[C@@H](n2nc(-c3ccc(C(=O)Nc4cc(C(F)(F)CCC)ccn4)cc3)c3cncc(Cl)c32)C1` [BCD-BTK - 252, (R)-4-(1-(1-acryloylpiperidin-3-yl)-7-chloro-1H-pyrazolo[4,3-c]pyridin-3-yl)-N-(4-(1,1-difluorobutyl)pyridin-2-yl)benzamide] as the molecule, how does the “Amount of substance in the sample in %” value read?
Answer: The value was 94.4%.

Question: Which “Amount of substance in the sample in %” value does the source give for `C=CC(=O)N1CCC[C@@H](n2nc(-c3ccc(C(=O)Nc4cc(C(F)(F)CCC)ccn4)cc3)c3c(N)ncc(Cl)c32)C1` [BCD-BTK - 254, (R)-4-(1-(1-acryloylpiperidin-3-yl)-4-amino-7-chloro-1H-pyrazolo[4,3-c]pyridin-3-yl)-N-(4-(1,1-difluorobutyl)pyridin-2-yl)benzamide] here?
Answer: Its value is 100%.

Question: With `C=CC(=O)N1CCC[C@@H](n2nc(-c3ccc(Oc4cccnc4C(N)=O)cc3)c3cncc(F)c32)C1` [BCD-BTK - 255, (R)-3-(4-(1-(1-acryloylpiperidin-3-yl)-7-fluoro-1H-pyrazolo[4,3-c]pyridin-3-yl)phenoxy)picolinamide] as the molecule, how does the “Amount of substance in the sample in %” value read?
Answer: Its value is 100%.

Question: For `CC#CC(=O)N1CC(n2nc(-c3ccc(Oc4ccncc4)cc3)c3cncc(Cl)c32)C1` [BCD-BTK - 281, 1-(3-(7-chloro-3-(4-(pyridin-4-yloxy)phenyl)-1H-pyrazolo[4,3-c]pyridin-1-yl)azetidin-1-yl)but-2-yn-1-one], which “Amount of substance in the sample in %” value is on record?
Answer: Its value is 100%.
